Results reported in patent publication US20150225790A1, “METHODS FOR IDENTIFYING SUBJECTS WITH AN INCREASED LIKELIHOOD OF RESPONDING TO CCR1 ANTAGONIST” (BRISTOL-MYERS SQUIBB COMPANY, priority 2012, published 2015).

Key:
SPP1 = test: Whole genome mRNA profiling, whole blood + RANTES: SPP1; format: cell-based, human; conditions: probe 209875_s_at; healthy volunteer whole blood, RANTES 100 nM +/- BMS-817399 1 uM; 24 hours
Description: (§1) Gene profiling experiments to identify genes downstream of CCR1 signaling (via CCR1 ligand stimulation) were performed. It was shown that these genes were blocked following treatment with a CCR1 antagonist. Whole blood from three healthy volunteers was treated with RANTES (100 nM, CCL5), in the presence and absence of the CCR1 antagonist (50 nM, 1 μM) for 4 and 24 hours. Following the incubation, mRNA was isolated for whole genome mRNA profiling.
(§2) Lyophilized human recombinant CCR1 ligand RANTES (Peprotech, Rocky Hill, N.J.) was reconstituted to 100 μM per the manufacturer's instructions. BMS-817399 was reconstituted to 10 mM in 100% DMSO (Sigma-Aldrich, St. Louis Mo.) and further diluted 1:50 in 10% DMSO. […] RNA quantity and quality were assessed on the ND-8000 spectrophotometer (Thermo Scientific, Wilmington, Del.) and RNA integrity was assessed on the AGILENT® 2100 Bioanalyzer using the RNA 6000 Nano Lab Chip kit (Agilent Technologies, Santa Clara, Calif.).
(§3) RNA samples with yields ≧1.5 μg and RIN (RNA integrity number) values of 6.5 and above were randomized in 96-well plates and normalized to a concentration of 250 ng/μL in preparation for microarray analysis. […] Data obtained from the microarray analysis were analyzed by statisticians internal to Bristol-Myers Squibb. […]

CLEC5A [1] = test: Whole genome mRNA profiling, whole blood + RANTES: CLEC5A; format: cell-based, human; conditions: probe 219890_at; healthy volunteer whole blood, RANTES 100 nM +/- BMS-817399 1 uM; 4 hours
Description: as §1, §2, §3

CSPG2 = test: Whole genome mRNA profiling, whole blood + RANTES: CSPG2; format: cell-based, human; conditions: probe 204620_s_at; healthy volunteer whole blood, RANTES 100 nM +/- BMS-817399 1 uM
Description: as §1, §2, §3

FPRL2 = test: Whole genome mRNA profiling, whole blood + RANTES: FPRL2; format: cell-based, human; conditions: probe 214560_at; healthy volunteer whole blood, RANTES 100 nM +/- BMS-817399 1 uM; 4 hours
Description: as §1, §2, §3

CD86 = test: Whole genome mRNA profiling, whole blood + RANTES: CD86; format: cell-based, human; conditions: probe 210895_s_at; healthy volunteer whole blood, RANTES 100 nM +/- BMS-817399 1 uM
Description: as §1, §2, §3

MERTK [2] = test: Whole genome mRNA profiling, whole blood + RANTES: MERTK; format: cell-based, human; conditions: probe 206028_s_at; healthy volunteer whole blood, RANTES 100 nM +/- BMS-817399 1 uM; 4 hours
Description: as §1, §2, §3

KYNU = test: Whole genome mRNA profiling, whole blood + RANTES: KYNU; format: cell-based, human; conditions: probe 217388_s_at; healthy volunteer whole blood, RANTES 100 nM +/- BMS-817399 1 uM
Description: as §1, §2, §3

PHLDA2 = test: Whole genome mRNA profiling, whole blood + RANTES: PHLDA2; format: cell-based, human; conditions: probe 209803_s_at; healthy volunteer whole blood, RANTES 100 nM +/- BMS-817399 1 uM
Description: as §1, §2, §3

FCN1 = test: Whole genome mRNA profiling, whole blood + RANTES: FCN1; format: cell-based, human; conditions: probe 206237_at; healthy volunteer whole blood, RANTES 100 nM +/- BMS-817399 1 uM; 24 hours
Description: as §1, §2, §3

TLR8 = test: Whole genome mRNA profiling, whole blood + RANTES: TLR8; format: cell-based, human; conditions: probe 220832_at; healthy volunteer whole blood, RANTES 100 nM +/- BMS-817399 1 uM
Description: as §1, §2, §3

CLEC5A [3] = test: In vitro treatment of RA patient whole blood, qRT-PCR: CLEC5A; format: cell-based, human; conditions: 500 nM CCR1 antagonist, 3 hours
Description: (§4) FIGS. 3A-B show relative CLEC5A and MERTK expression levels in RA patient blood. Whole blood from RA patients was shipped overnight and treated with 500 nM CCR1 antagonist for 3 hours. RNA was isolated and analyzed by qRT-PCR. Expression levels are represented as mRNA levels relative to the untreated control samples as a function of treatment condition. Percent inhibition of gene expression by the investigational drug was calculated and is represented as “% change”. C-reactive protein (CRP) levels of subjects, as determined by Bioreclamation, are listed as well.
(§5) Whole blood, collected from RA patients, was stimulated with 500 nM of a CCR1 antagonist for 3 hours at 37° C. After the incubation, RNA was isolated and the gene expression levels of CLEC5A, MERTK, and the endogenous control HPRT1 were assessed by qRT-PCR for each subject. CLEC5A and MERTK mRNA levels (normalized to that of HPRT1) were calculated relative to the untreated control sample for each patient.
(§6) Whole blood, drawn in EDTA VACUTAINER® tubes from RA patients, was obtained from Bioreclamation for in vitro treatment with BMS-817399 and subsequent qRT-PCR analysis. […] Serum CRP and whole blood ESR levels of qualified subjects were also assessed by Bioreclamation. […] Data were analyzed in the SDS software for relative quantitation. […]

MERTK [4] = test: In vitro treatment of RA patient whole blood, qRT-PCR: MERTK; format: cell-based, human; conditions: 500 nM CCR1 antagonist, 3 hours
Description: as §4, §5, §6

CLEC5A [5] = test: Phase 1 trial, ex vivo RANTES-stimulated whole blood qRT-PCR: CLEC5A; format: in vivo, human; conditions: healthy volunteers, single and multiple oral doses; ex vivo 25 nM RANTES, 2 hours, 37° C.
Description: (§7) FIGS. 2A-D show relative CLEC5A and MERTK expression levels in a Phase I clinical trial. Healthy volunteers were treated with single or multiple doses of a CCR1 antagonist through oral administration at various dose levels; blood samples from subjects were treated ex vivo with CCR1 ligand RANTES. RNA was isolated and analyzed by qRT-PCR. Expression levels are represented as (negative) change in median CT (cycle threshold) value between the target (CLEC5A or MERTK) and the endogenous control (GAPDH) as a function of time.
(§8) In this study (Example 2), healthy volunteers were treated with single or multiple doses of a CCR1 antagonist through oral administration at various dose levels. Pharmacodynamic effects of the compound were assessed using an ex vivo functional assay at various times post dosing. For the assay, whole blood was collected at indicated time points following dosing with the CCR1 antagonist and stimulated ex vivo for 2 hours at 37° C. with 25 nM recombinant human RANTES. After the incubation, RNA was isolated and CLEC5A and MERTK mRNA levels, relative to the GAPDH housekeeping gene, were measured by qRT-PCR in triplicate at each time-point for each subject. The median cycle time (CT) for each gene was evaluated and changes in the CT values (ΔCT) were calculated by subtracting the median GAPDH CT value from the corresponding median values for CLEC5A CT or MERTK CT. […]

MERTK [6] = test: Phase 1 trial, ex vivo RANTES-stimulated whole blood qRT-PCR: MERTK; format: in vivo, human; conditions: healthy volunteers, single and multiple oral doses; ex vivo 25 nM RANTES, 2 hours, 37° C.
Description: as §7, §8

[7] = Phase 1 trial in healthy human subjects: safety; format: in vivo
Source text: Current standard of care for the treatment of RA includes disease-modifying anti-rheumatic drugs that decrease immune activation and subsequent inflammation. However, a large proportion of patients are non-responsive to these medications, thus resulting in progression of disease symptoms. […] Further, identification of predictive biomarkers may allow for patient stratification in future clinical trials. Identification of patients most likely to respond favorably to the CCR1 antagonist may provide justification for use of a CCR1 antagonist earlier in the course of treatment, potentially preventing extensive structural damage of the joints.

CC(C)[C@@H](NC(=O)NCC(C)(C)O)C(=O)N1CC[C@](O)(c2ccc(Cl)cc2)C(C)(C)C1 [BMS-817399]
SPP1 (osteopontin) expression, Fold Change (SPP1): −6.547
SPP1 (osteopontin) expression, Mean (SPP1): −2.711
CLEC5A expression, Fold Change (CLEC5A [1]): −5.123
CLEC5A expression, Mean (CLEC5A [1]): −2.357
CSPG2 (versican) expression, Fold Change (CSPG2): −4.39
CSPG2 (versican) expression, Mean (CSPG2): −2.134
FPRL2 expression, Fold Change (FPRL2): −3.571
FPRL2 expression, Mean (FPRL2): −1.836
CD86 expression, Fold Change (CD86): −2.559
CD86 expression, Mean (CD86): −1.356
MERTK expression, Fold Change (MERTK [2]): −2.417
MERTK expression, Mean (MERTK [2]): −1.274
KYNU (kynureninase) expression, Fold Change (KYNU): −2.32
KYNU (kynureninase) expression, Mean (KYNU): −1.214
PHLDA2 expression, Fold Change (PHLDA2): −2.252
PHLDA2 expression, Mean (PHLDA2): −1.171
FCN1 (ficolin 1) expression, Fold Change (FCN1): −2.234
FCN1 (ficolin 1) expression, Mean (FCN1): −1.16
TLR8 expression, Fold Change (TLR8): −2.232
TLR8 expression, Mean (TLR8): −1.158
decrease of CLEC5A expression levels relative to the untreated control samples (CLEC5A [3]): more than 30%
decrease of MERTK expression levels relative to the untreated control samples (MERTK [4]): more than 30%
inhibition of CLEC5A gene expression in whole blood (CLEC5A [5]): rapid and potent inhibition
inhibition of MERTK gene expression in whole blood (MERTK [6]): rapid and potent inhibition
safety profile [7]: acceptable safety profile
